Laboratory results from patent US12187684B2, “Benzimidazole derivatives as modulators of retinoid-related orphan receptor gamma (RORγ) and pharmaceutical use thereof” (Jiangsu Hengrui Medicine Co., Ltd., priority 2018, dated 2025).

What follows are molecules tested against T1, RORγ LBD-GST tagged (Homo sapiens, UniProt P51449) (assay: LanthaScreen TR-FRET RORγ coactivator assay). Conditions: Fluorescein-D22 coactivator peptide, 1 hour room temperature.
T1 construct: RORγ LBD-GST tagged (Cat No. RORC-114H, Creative Biomart); purchased Creative Biomart RORC-114H
T1 sequence (P51449 269-508 limits assumed): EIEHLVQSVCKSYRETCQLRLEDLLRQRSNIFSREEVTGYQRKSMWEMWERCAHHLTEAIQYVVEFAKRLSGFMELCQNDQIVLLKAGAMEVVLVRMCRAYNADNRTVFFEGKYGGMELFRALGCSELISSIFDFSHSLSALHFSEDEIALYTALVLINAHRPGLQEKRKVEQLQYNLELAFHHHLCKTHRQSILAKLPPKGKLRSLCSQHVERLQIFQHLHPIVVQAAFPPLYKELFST
Format: biochemical
Excerpt: LanthaScreen TR-FRET Retinoid-Related Orphan Receptor Gamma (RORγ) Coactivator Assay Materials and Reagents • 1. […] Fluorescein-D22 coactivator peptide (Cat No. PV4386, Invitrogen) • 3. LanthaScreen™ Tb anti-GST antibody (Cat No. PV3550, Invitrogen) • 4. TR-FRET coregulatory buffer D (Cat No, PV4420, Invitrogen) • 5. DTT (Cat No. P2325, Fisher) • 6. […] Tecan Infinite M1000 plate reader (Tecan) Experimental Procedure Prepare Complete TR-FRET Coregulator Buffer D by adding 1 M DTT to TR-FRET Coregulator Buffer D to the final concentration of 5 mM DTT. Make compound dilution in Complete TR-FRET Coregulator Buffer D. Highest dose is 3 μM, 7-folder dilution for total 7 doses. Add 10 μL to each well of a 384-well plate. For the negative and positive controls, add 10 μL of Complete TR-FRET Coregulator Buffer D. Prepare RORγ LBD using Complete TR-FRET Coregulator Buffer D. The final concentration of RORγ LBD is 25 ng/reaction. Add 5 μL RORγ LBD to all the wells of the 384-well assay plate except negative wells which adding 5 μL Complete TR-FRET Coregulator Buffer D. Prepare a solution containing 0.6 μM Fluorescein-D22 and 8 nM Tb anti-GST antibody using Complete TR-FRET Coregulator Buffer D. Add 5 μL to all wells of the 384-well assay plate. Briefly and gently mix the 384-well plate on a plate shaker and incubate at room temperature protected from light for 1 hour. The plate may be sealed with a cover to minimize evaporation. Read the plate at wavelengths of 520 nm and 495 nm on Tecan Infinite M1000. IC50 values were calculated using GraphPad Prism by plotting the logarithm of compounds concentration versus percent inhibition.

Row | IC50 | Compound
1 | 1.04 µM | CCS(=O)(=O)c1ccc(C(CO)c2nc3c(F)c(-c4ccccc4OC(F)(F)F)c(F)cc3[nH]2)cc1 (stereo not drawn) [Example 109, 2-(4,6-difluoro-5-(2-(trifluoromethoxy)phenyl)-1H-benzo[d]imidazol-2-yl)-2-(4-(ethylsulfonyl)phenyl)ethanol]
2 | 0.154 µM | O=S(=O)(CCF)c1ccc(C(CO)c2nc3c(Cl)c(-c4ccccc4OC(F)(F)F)c(Cl)cc3[nH]2)cc1 (stereo not drawn) [Example 62, 2-(4,6-dichloro-5-(2-(trifluoromethoxy)phenyl)-1H-benzo[d]imidazol-2-yl)-2-(4-((2-fluoroethyl)sulfonyl)phenyl)ethanol]
3 | 0.387 µM | CCS(=O)(=O)c1ccc(Cc2nc3c(Cl)c(-c4ccccc4OC(F)(F)F)c(Cl)cc3[nH]2)c(F)c1 [Example 76, 4,6-dichloro-2-(4-(ethylsulfonyl)-2-fluorobenzyl)-5-(2-(trifluoromethoxy)phenyl)-1H-benzo[d]imidazole]
4 | 0.966 µM | CCS(=O)(=O)c1ccc(C(O)c2nc3cc(-c4ccccc4OC(F)(F)F)c(F)cc3[nH]2)cc1 (stereo not drawn) [Example 121, (4-(ethylsulfonyl)phenyl)(6-fluoro-5-(2-(trifluoromethoxy)phenyl)-1H-benzo[d]imidazol-2-yl)methanol]
5 | 0.266 µM | CS(=O)(=O)c1ccc(C(O)c2nc3c(Cl)c(-c4ccccc4OC(F)(F)F)c(Cl)cc3[nH]2)cc1 (stereo not drawn) [Example 58, (4,6-dichloro-5-(2-(trifluoromethoxy)phenyl)-1H-benzo[d]imidazol-2-yl)(4-(methylsulfonyl)phenyl)methanol]
6 | 0.013 µM | CCOc1ccccc1-c1c(Cl)cc2[nH]c(C(O)c3ccc(S(=O)(=O)CC)cc3)nc2c1Cl (stereo not drawn) [Example 18, (4,6-dichloro-5-(2-ethoxyphenyl)-1H-benzo[d]imidazol-2-yl)(4-(ethylsulfonyl)phenyl)methanol]
7 | 0.409 µM | O=S(=O)(CC(F)(F)F)c1ccc(C(CO)c2nc3c(Cl)c(-c4ccccc4OC(F)(F)F)c(Cl)cc3[nH]2)cc1 (stereo not drawn) [Example 60, 2-(4,6-dichloro-5-(2-(trifluoromethoxy)phenyl)-1H-benzo[d]imidazol-2-yl)-2-(4-((2,2,2-trifluoroethyl)sulfonyl)phenyl)ethanol]
8 | 0.698 µM | CCS(=O)(=O)c1ccc(C(O)c2nc3c(F)c(-c4ccccc4OC(F)(F)F)c(F)cc3[nH]2)cc1 (stereo not drawn) [Example 110, (4,6-difluoro-5-(2-(trifluoromethoxy)phenyl)-1H-benzo[d]imidazol-2-yl)(4-(ethylsulfonyl)phenyl)methanol]
9 | 0.646 µM | CCCS(=O)(=O)c1ccc(C(CO)c2nc3c(Cl)c(-c4ccccc4OC(F)(F)F)c(Cl)cc3[nH]2)cc1 (stereo not drawn) [Example 51, 2-(4,6-dichloro-5-(2-(trifluoromethoxy)phenyl)-1H-benzo[d]imidazol-2-yl)-2-(4-(propylsulfonyl)phenyl)ethanol]

More lines, now with the values behind:

Row | Compound | IC50
10 | CCS(=O)(=O)c1ccc(Cc2nc3c(Cl)c(-c4ccccc4OC(F)F)c(Cl)cc3[nH]2)cc1 [Example 28, 4,6-dichloro-5-(2-(difluoromethoxy)phenyl)-2-(4-(ethylsulfonyl)benzyl)-1H-benzo[d]imidazole] | 0.045 µM
11 | O=S(=O)(c1ccc(Cc2nc3c(Cl)c(-c4ccccc4C(F)(F)F)c(Cl)cc3[nH]2)cc1)C(F)(F)F [Example 65, 4,6-dichloro-5-(2-(trifluoromethyl)phenyl)-2-(4-((trifluoromethyl)sulfonyl)benzyl)-1H-benzo[d]imidazole] | 0.015 µM
12 | CCS(=O)(=O)c1ccc(Cc2nc3c(C)c(-c4ccccc4C(F)(F)F)c(C)cc3[nH]2)cc1 [Example 115, 2-(4-(ethylsulfonyl)benzyl)-4,6-dimethyl-5-(2-(trifluoromethyl)phenyl)-1H-benzo[d]imidazole] | 0.171 µM
13 | CCOc1ccccc1-c1c(Cl)cc2[nH]c(Cc3ccc(S(=O)(=O)CC)cc3)nc2c1Cl [Example 16, 4,6-dichloro-5-(2-ethoxyphenyl)-2-(4-(ethylsulfonyl)benzyl)-1H-benzo[d]imidazole] | 0.626 µM
14 | N#Cc1ccccc1-c1c(Cl)cc2[nH]c(C(O)c3ccc(S(=O)(=O)CC4CC4)cc3)nc2c1Cl (stereo not drawn) [Example 97, 2-(4,6-dichloro-2-((4-((cyclopropylmethyl)sulfonyl)phenyl)(hydroxy)methyl)-1H-benzo[d]imidazol-5-yl)benzonitrile] | 0.001 µM
15 | CCS(=O)(=O)c1ccc(C(CO)c2nc3c(Cl)c(-c4ccccc4OC(F)(F)F)c(Cl)cc3[nH]2)c(Cl)c1 (stereo not drawn) [Example 87, 2-(2-chloro-4-(ethylsulfonyl)phenyl)-2-(4,6-dichloro-5-(2-(trifluoromethoxy)phenyl)-1H-benzo[d]imidazol-2-yl)ethanol] | 0.024 µM
16 | CCS(=O)(=O)c1ccc(C(NC(C)=O)c2nc3c(Cl)c(-c4ccccc4OC(F)F)c(Cl)cc3[nH]2)cc1 (stereo not drawn) [Example 40, N-((4,6-dichloro-5-(2-(difluoromethoxy)phenyl)-1H-benzo[d]imidazol-2-yl)(4-(ethylsulfonyl)phenyl)methyl)acetamide] | 0.083 µM
17 | NC(=O)CC(c1ccc(S(=O)(=O)CC2CC2)cc1)c1nc2cc(Cl)c(N3CCC(F)(F)CC3)c(Cl)c2[nH]1 (single isomer, unassigned) [3-(4-((cyclopropylmethyl)sulfonyl)phenyl)-3-(5,7-dichloro-6-(4,4-difluoropiperidin-1-yl)-1H-benzo[d]imidazol-2-yl)propanamide] | 0.014 µM
18 | CCS(=O)(=O)c1ccc(C(CO)c2nc3c(Cl)c(-c4ccsc4)c(Cl)cc3[nH]2)cc1 (stereo not drawn) [Example 25, 2-(4,6-dichloro-5-(thiophen-3-yl)-1H-benzo[d]imidazol-2-yl)-2-(4-(ethylsulfonyl)phenyl)ethanol] | 0.789 µM
19 | CCS(=O)(=O)c1ccc(Cc2nc3c(Cl)c(-c4ccccc4OC(F)F)c(Cl)cc3[nH]2)c(Cl)c1 [Example 89, 4,6-dichloro-2-(2-chloro-4-(ethylsulfonyl)benzyl)-5-(2-(difluoromethoxy)phenyl)-1H-benzo[d]imidazole] | 0.004 µM
20 | O=S(=O)(CCF)c1ccc(C(CO)c2nc3c(Cl)c(-c4ccccc4C(F)(F)F)c(Cl)cc3[nH]2)cc1 (stereo not drawn) [Example 64, 2-(4,6-dichloro-5-(2-(trifluoromethyl)phenyl)-1H-benzo[d]imidazol-2-yl)-2-(4-((2-fluoroethyl)sulfonyl)phenyl)ethanol] | 0.465 µM
21 | CCS(=O)(=O)c1ccc(C(O)c2nc3c(Cl)c(-c4ccccc4C(F)(F)F)c(Cl)cc3[nH]2)c(F)c1 (stereo not drawn) [Example 79, (4,6-dichloro-5-(2-(trifluoromethyl)phenyl)-1H-benzo[d]imidazol-2-yl)(4-(ethylsulfonyl)-2-fluorophenyl)methanol] | 0.048 µM
22 | CC(C)Oc1ccccc1-c1cc2nc(C(CCO)c3ccc(S(=O)(=O)CC4CC4)cc3)[nH]c2cc1Cl (single isomer, unassigned) [3-(6-chloro-5-(2-isopropoxyphenyl)-1H-benzo[d]imidazol-2-yl)-3-(4-((cyclopropylmethyl)sulfonyl)phenyl)propan-1-ol] | 0.787 µM
23 | CCS(=O)(=O)c1ccc(C(CCO)c2nc3c(Cl)c(N4CCC(F)(F)CC4)c(Cl)cc3[nH]2)cc1 (single isomer, unassigned) [3-(4,6-dichloro-5-(4,4-difluoropiperidin-1-yl)-1H-benzo[d]imidazol-2-yl)-3-(4-(ethylsulfonyl)phenyl)propan-1-ol] | 0.093 µM
24 | O=S(=O)(CC1CC1)c1ccc(Cc2nc3c(Cl)c(-c4ccccc4Cl)c(Cl)cc3[nH]2)cc1 [Example 93, 4,6-dichloro-5-(2-chlorophenyl)-2-(4-((cyclopropylmethyl)sulfonyl)benzyl)-1H-benzo[d]imidazole] | 0.075 µM
25 | CCS(=O)(=O)c1ccc(Cc2nc3c(Cl)c(-c4ccccc4OC(F)F)c(Cl)cc3[nH]2)c(F)c1 [Example 83, 4,6-dichloro-5-(2-(difluoromethoxy)phenyl)-2-(4-(ethylsulfonyl)-2-fluorobenzyl)-1H-benzo[d]imidazole] | 0.065 µM
26 | CC(C)Oc1ccccc1-c1cc2nc(C(CC(N)=O)c3ccc(S(=O)(=O)CC4CC4)cc3)[nH]c2cc1Cl (single isomer, unassigned) [3-(6-chloro-5-(2-isopropoxyphenyl)-1H-benzo[d]imidazol-2-yl)-3-(4-((cyclopropylmethyl)sulfonyl)phenyl)propanamide] | 1.41 µM
27 | O=S(=O)(CCF)c1ccc(Cc2nc3c(Cl)c(-c4ccccc4OC(F)(F)F)c(Cl)cc3[nH]2)cc1 [Example 61, 4,6-dichloro-2-(4-((2-fluoroethyl)sulfonyl)benzyl)-5-(2-(trifluoromethoxy)phenyl)-1H-benzo[d]imidazole] | 0.509 µM
